{
  "source": "patent US10842789B2",
  "about": "“Treatment of schizophrenia” (PIERRE FABRE MEDICAMENT, priority 2017, dated 2020)",
  "key": {"[1]": {"test_system": "patients with acute exacerbation of schizophrenia", "test": "Double-blind placebo-controlled phase II study, patients with acute exacerbation of schizophrenia", "assay_type": "in vivo, human", "experimental": "N-(3-{4-[4-(8-oxo-8H-[1,3]dioxolo[4,5-g]chromen-7-yl)-butyl]-piperazin-1-yl}-phenyl)-methanesulfonamide hydrochloride has been tested in a placebo-controlled study of patients with an acute exacerbation of schizophrenia.\nThis double-blind, parallel group, multicenter study included patients with acute exacerbation of schizophrenia treated either with F17464 fixed dose 40 mg (20 mg bid) or placebo (randomization 1:1) for 6 weeks as antipsychotic monotherapy. The primary objective was to evaluate the efficacy of F17464 in comparison to placebo. The primary efficacy criterion was the PANSS (Positive and Negative Syndrome Scale) total score change from baseline to Day 43 on the Full Analysis Set (FAS).\nInclusion criteria included a well-documented diagnosis of schizophrenia for a minimum of 1 year, and a recent acute exacerbation characterized by a PANSS total score at screening ≥70 and <120 with no significant change of the PANSS positive subscore between the screening and randomization visits; and Clinical Global Impression of Severity (CGI-S) score ≥4.\nAll patients had discontinued previous treatments within the week prior to administration of study medication.\nFollowing screening, patients were maintained in hospital till the 3rd week of treatment. Patients who had CGI-I (Clinical Global Impression of Improvement) score of ≤3 after 3 or 4 weeks were then eligible for hospital discharge and could continue study participation as outpatients.\nThe PANSS scores of the tested patients were established each week.\nSchizophrenia History: Before Screening Visit • Patient with a current primary diagnosis of schizophrenia undergoing an acute exacerbation with prominent “active phase” symptoms, as described by the Diagnostic and Statistical Manual of Mental Disorders, 4th edition—Text Revision (DSM IV-TR) using the MINI 6.0 (Mini-International Neuropsychiatric Interview) for schizophrenia and psychotic disorders related to DSM IV-TR; • For a minimum of 1 year, well-documented diagnosis with the first hospitalization for acute exacerbation of schizophrenia; • Since the diagnosis of schizophrenia, the average number of hospitalizations should be no higher than 2 per year (the minimum duration of hospitalization should be more than 4 days); • During the year before screening visit, maximum 3 acute psychotic episodes that required hospitalization or change of antipsychotic medication or other therapeutic intervention; • Adequate clinical response to well-conducted treatment courses during previous acute episodes. A well conducted treatment course is defined as an antipsychotic treatment with the usual doses for at least 4 weeks. Current Acute Episode: • Structured Clinical Interview for the Positive And Negative Syndrome Scale (SCI-PANSS) with a PANSS total score ≥70 to <120 (at screening and randomization visits); • Rating of at least 4 (moderate) on at least 2 of the following 4 PANSS positive symptoms: delusions, hallucinatory behavior, conceptual disorganization, suspiciousness/persecution; • Clinical Global Impression of Severity (CGI-S) score ≥4 (moderate or severe). • Antipsychotic initiated for this acute episode and/or ongoing chronic antipsychotic treatment, with a maximum of 2 antipsychotics in total needed to be changed (due to inefficacy or safety reasons); • Hospitalization and/or treatment for the current psychotic episode for less than 2 weeks prior to screening visit; • No significant improvement of PANSS total score between enrolment (screening visit) and inclusion (randomization visit) corresponding to a score improvement <20% on positive symptoms subscale. Examination: • Normal physical examination results, vital signs and clinical laboratory test results or other results judged not clinically significant by the investigator; • Body mass index (BMI)≥18 and ≤35 kg/m^2 inclusive. […]"}, "[2]": {"molecular_target": "T1, human recombinant dopamine D2L receptor (Homo sapiens, UniProt P14416)", "T1 construct": "expressed in transfected cells", "T1 sequence (P14416 whole entry)": "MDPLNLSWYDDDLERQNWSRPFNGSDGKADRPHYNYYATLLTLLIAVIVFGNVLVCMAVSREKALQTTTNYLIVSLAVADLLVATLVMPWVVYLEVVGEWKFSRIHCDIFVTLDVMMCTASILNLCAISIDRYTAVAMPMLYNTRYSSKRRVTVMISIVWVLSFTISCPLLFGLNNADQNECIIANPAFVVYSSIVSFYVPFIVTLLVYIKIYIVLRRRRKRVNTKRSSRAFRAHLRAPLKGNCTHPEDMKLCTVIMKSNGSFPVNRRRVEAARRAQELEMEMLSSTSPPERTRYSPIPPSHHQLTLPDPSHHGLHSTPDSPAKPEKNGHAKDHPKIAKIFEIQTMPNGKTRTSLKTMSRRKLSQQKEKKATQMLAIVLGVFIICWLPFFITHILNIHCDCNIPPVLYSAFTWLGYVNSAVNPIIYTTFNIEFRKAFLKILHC", "test": "[3H] spiperone binding, cells expressing human recombinant dopamine D2L receptors", "experimental": "(§1) The activity of F17464 was evaluated at recombinant dopaminergic receptors in vitro for its profile at D2 and D3 receptor. […] F17464 was also evaluated for its agonist, partial agonist, or antagonist activity at the dopamine D3 receptor by using the MAP-kinase activity test on human recombinant dopamine D3 receptors (Cussac et al., Mol. Pharmacol. 1999, 56, 1025-1030).\n(§2) As used herein, the term “selective D3 antagonist” refers to a D3 antagonist, as defined here above, that has more affinity for the D3 receptor than for the D2 receptor (D2S and/or D2L). Affinity of a compound for a receptor is usually expressed as a Ki value. Preferentially, the relative binding affinities are determined in competitive radioligand binding studies using cells expressing human recombinant dopamine D3, D2S or D2L receptors (Newman-Tancredi et al. British Journal of Pharmacology, 2007, 151, 237-252). More preferentially, it is defined in [^3H] spiperone binding studies using cells expressing human recombinant dopamine D3 receptors or human recombinant dopamine D2L or D2S receptors (Cussac et al. Naunyn-Schmiedeberg's Arch Pharmacol, 2000, 361, 569-572)."}, "[3]": {"test_system": "D2 receptor", "conditions": "healthy subjects, after two single dose levels; cited from earlier work"}, "[4]": {"molecular_target": "T2, D3 (Homo sapiens, UniProt P35462)", "T2 construct": "from tissue; host or cells: brain of healthy subjects in vivo (PET)", "T2 sequence (P35462 whole entry)": "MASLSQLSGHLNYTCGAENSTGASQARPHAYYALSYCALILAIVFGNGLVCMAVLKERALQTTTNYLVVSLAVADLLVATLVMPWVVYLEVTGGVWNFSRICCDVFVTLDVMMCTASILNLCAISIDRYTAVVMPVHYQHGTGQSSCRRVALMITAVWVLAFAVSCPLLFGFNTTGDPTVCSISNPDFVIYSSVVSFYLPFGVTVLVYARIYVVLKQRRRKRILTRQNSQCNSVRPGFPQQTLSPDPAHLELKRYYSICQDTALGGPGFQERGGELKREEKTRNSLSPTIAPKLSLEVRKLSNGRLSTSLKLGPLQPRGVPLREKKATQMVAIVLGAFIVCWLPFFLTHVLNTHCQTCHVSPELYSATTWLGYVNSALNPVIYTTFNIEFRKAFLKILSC", "conditions": "healthy subjects, after two single dose levels; cited from earlier work"}, "[5]": {"molecular_target": "T3, human recombinant dopamine D2S receptor (Homo sapiens, UniProt P14416)", "T3 construct": "expressed in transfected cells", "T3 sequence (P14416 1-414 isoform P14416-2)": "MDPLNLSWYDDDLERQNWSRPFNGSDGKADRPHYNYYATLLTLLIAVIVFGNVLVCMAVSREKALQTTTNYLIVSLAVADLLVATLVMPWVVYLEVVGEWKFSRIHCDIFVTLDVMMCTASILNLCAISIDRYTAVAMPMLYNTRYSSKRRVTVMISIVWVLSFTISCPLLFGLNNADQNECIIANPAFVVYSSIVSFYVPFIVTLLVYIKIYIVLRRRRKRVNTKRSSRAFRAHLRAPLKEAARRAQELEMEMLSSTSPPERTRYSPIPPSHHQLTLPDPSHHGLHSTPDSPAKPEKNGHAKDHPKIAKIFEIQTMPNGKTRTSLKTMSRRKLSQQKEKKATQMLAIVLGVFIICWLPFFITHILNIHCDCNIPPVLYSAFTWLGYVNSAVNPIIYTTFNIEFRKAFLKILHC", "test": "[3H] spiperone binding, cells expressing human recombinant dopamine D2S receptors", "experimental": "as §1, §2"}, "[6]": {"conditions": "F17464 versus placebo, FAS population n = 67"}, "[7]": {"conditions": "F17464 versus placebo, NS subgroup n = 29"}, "[8]": {"conditions": "NS subgroup versus FAS population"}, "[9]": {"conditions": "NS subgroup versus FAS population, score points"}, "[10]": {"conditions": "baseline to end of treatment, FAS"}},
  "note": "Marks after values point to notes of the source that are not given here.",
  "data": [
    {"smiles": "CS(=O)(=O)Nc1cccc(N2CCN(CCCCc3coc4cc5c(cc4c3=O)OCO5)CC2)c1", "note": "[F17464, N-(3-{4-[4-(8-oxo-8H-[1,3]dioxolo[4,5-g]chromen-7-yl)-butyl]-piperazin-1-yl}-phenyl)-methanesulfonamide]", "values": [
      {"measurement": "clinically relevant hepatic, metabolic or cardio-vascular disorder", "setting": "[1]; 20 mg bid, 6 weeks", "value": "no clinically relevant hepatic, metabolic (including clinically relevant weight gain) or cardio-vascular disorder"},
      {"measurement": "overall incidence of treatment-emergent adverse events (TEAEs)", "setting": "[1]; 20 mg bid, 6 weeks", "value": 70.1, "unit": "%"},
      {"measurement": "Treatment effect on change from baseline, PANSS general psychopathology [LSmean (SE)]", "setting": "[1]; [6]", "value": "−3.6 (1.3) *"},
      {"measurement": "Treatment effect on change from baseline, PANSS negative symptoms [LSmean (SE)]", "setting": "[1]; [6]", "value": "−0.7 (0.6)^"},
      {"measurement": "Treatment effect on change from baseline, PANSS positive symptoms [LSmean (SE)]", "setting": "[1]; [6]", "value": "−1.9 (1.0) *"},
      {"measurement": "Treatment effect on change from baseline, PANSS general psychopathology [LSmean (SE)]", "setting": "[1]; [7]", "value": "−6.4 (2.0) *"},
      {"measurement": "Treatment effect on change from baseline, PANSS negative symptoms [LSmean (SE)]", "setting": "[1]; [7]", "value": "−2.7 (1.1) *"},
      {"measurement": "Treatment effect on change from baseline, PANSS positive symptoms [LSmean (SE)]", "setting": "[1]; [7]", "value": "−4.3 (1.6) *"},
      {"measurement": "Treatment effect on change from baseline, PANSS total score [LSmean (SE)]", "setting": "[1]; [7]", "value": "−13 (4.1) *"},
      {"measurement": "PANSS general psychopathology, change from baseline [LSmean (SE)]", "setting": "[1]; FAS population n = 67, Day 43", "value": "−6.6 (1.0) *"},
      {"measurement": "PANSS negative symptoms, change from baseline [LSmean (SE)]", "setting": "[1]; FAS population n = 67, Day 43", "value": "−1.7 (0.4)^"},
      {"measurement": "PANSS positive symptoms, change from baseline [LSmean (SE)]", "setting": "[1]; FAS population n = 67, Day 43", "value": "−6.3 (0.8) *"},
      {"measurement": "Discontinuation for Adverse Event, number of patients", "setting": "[1]; FAS, n = 67", "value": 2},
      {"measurement": "Discontinuation for Adverse Event, percent of patients", "setting": "[1]; FAS, n = 67", "value": "(3.0%)"},
      {"measurement": "Discontinuation for Lack Of Efficacy/Worsening of schizophrenia, number of patients", "setting": "[1]; FAS, n = 67", "value": 11},
      {"measurement": "Discontinuation for Lack Of Efficacy/Worsening of schizophrenia, percent of patients", "setting": "[1]; FAS, n = 67", "value": "(16.4%)"},
      {"measurement": "reduction of PANSS total score versus placebo over time", "setting": "[1]; From Day 22, FAS, LOCF", "value": "statistically higher than in placebo group"},
      {"measurement": "PANSS general psychopathology, change from baseline [LSmean (SE)]", "setting": "[1]; NS subgroup n = 29, Day 43", "value": "−9.3 (1.5) *"},
      {"measurement": "PANSS negative symptoms, change from baseline [LSmean (SE)]", "setting": "[1]; NS subgroup n = 29, Day 43", "value": "−4.3 (0.8) *"},
      {"measurement": "PANSS positive symptoms, change from baseline [LSmean (SE)]", "setting": "[1]; NS subgroup n = 29, Day 43", "value": "−8.4 (1.2) *"},
      {"measurement": "PANSS total score, adjusted change from baseline [LSmean (SE)]", "setting": "[1]; NS subgroup n = 29, Day 43", "value": "−21.8 (2.9) *"},
      {"measurement": "Difference of treatment effect, PANSS general psychopathology, percent", "setting": "[1]; [8]", "value": 78, "unit": "%"},
      {"measurement": "Difference of treatment effect, PANSS negative symptoms, percent", "setting": "[1]; [8]", "value": 285, "unit": "%"},
      {"measurement": "Difference of treatment effect, PANSS positive symptoms, percent", "setting": "[1]; [8]", "value": 126, "unit": "%"},
      {"measurement": "Difference of treatment effect, PANSS total score, percent", "setting": "[1]; [8]", "value": 110, "unit": "%"},
      {"measurement": "Difference of treatment effect, PANSS general psychopathology", "setting": "[1]; [9]", "value": 2.8},
      {"measurement": "Difference of treatment effect, PANSS negative symptoms", "setting": "[1]; [9]", "value": 2},
      {"measurement": "Difference of treatment effect, PANSS positive symptoms", "setting": "[1]; [9]", "value": 2.4},
      {"measurement": "Difference of treatment effect, PANSS total score", "setting": "[1]; [9]", "value": 6.8},
      {"measurement": "Response rate, PANSS total score reduction by 20%", "setting": "[1]; [10]", "value": 49.3, "unit": "%"},
      {"measurement": "Response rate, PANSS total score reduction by 30%", "setting": "[1]; [10]", "value": 27.0, "unit": "%"},
      {"measurement": "Time to first sustained PANSS 20% or 30% response", "setting": "[1]; compared to placebo group, from D21 up to Day 42", "value": "Shorter"},
      {"measurement": "PANSS positive score and positive factor, defined by Marder, versus placebo", "setting": "[1]; secondary criteria, FAS", "value": "statistically significantly greater"},
      {"measurement": "affinity for dopamine D2L receptor, times weaker than D3", "setting": "[2]; D2L versus D3", "value": 71, "unit": "times"},
      {"measurement": "Ki", "setting": "[2]; [3H] spiperone binding", "value": 12.1, "unit": "nM"},
      {"measurement": "binding rate to D2 receptor (PET)", "setting": "[3]", "value": "modest"},
      {"measurement": "D3 binding rate (PET)", "setting": "[4]", "value": "strong and long-lasting"},
      {"measurement": "affinity for dopamine D2S receptor, times weaker than D3", "setting": "[5]; D2S versus D3", "value": 38, "unit": "times"},
      {"measurement": "Ki", "setting": "[5]; [3H] spiperone binding", "value": 6.5, "unit": "nM"}
    ]}
  ]
}
